Results: patent US8771665B2 (Cocrystal Discovery, Inc., priority 2010, dated 2014)
Where a name gives a salt, the structure may show the parent alone.

target: T1, HCV1b NS5B polymerase delta 21 (Hepatitis C virus genotype 1b, UniProt P26663); test: RNA-Dependent RNA HCV NS5B (Polymerase) Assay and IC50 Determination; assay type: biochemical
T1 construct: purified HCV1b NS5B polymerase delta 21
Method: RNA-Dependent RNA HCV NS5B (Polymerase) Assay and IC50 Determination
In vitro RNA-dependent RNA polymerase activity was determined in a reaction mixture (50 μL) containing 50 mM Tris-HCl, pH 7.5, 5 mM MgCl2, 1 mM dithiothreitol, 0.5% Triton® X-100, 10 μM of UTP, 0.1-0.5 μCi of α-^32P UTP (Perkin Elmer Life Sciences), 1 μg of polyA:U16 (Midland Oligo), and 0.6 μg of purified HCV1b NS5B polymerase delta 21. Different concentrations of compounds were added to the reaction mixtures. The reaction was carried out at RT (23° C.) for 60 min and then stopped by the addition of 100 μL of 50 mM EDTA. The reaction mixtures were filtered through either a DE81 membrane or a positively charged nylon membrane, and the membranes were then extensively washed with 30 mM sodium citrate, pH 7.0 and 300 mM NaCl. The radiolabeled RNA products were quantitated using a Storm™ Phosphorlmager™ (GE Life Sciences). IC50 values were calculated using GraFit 6 and GraphPad Prism 5 from triplicate assays.

T1 sequence (P26663 2420-2989): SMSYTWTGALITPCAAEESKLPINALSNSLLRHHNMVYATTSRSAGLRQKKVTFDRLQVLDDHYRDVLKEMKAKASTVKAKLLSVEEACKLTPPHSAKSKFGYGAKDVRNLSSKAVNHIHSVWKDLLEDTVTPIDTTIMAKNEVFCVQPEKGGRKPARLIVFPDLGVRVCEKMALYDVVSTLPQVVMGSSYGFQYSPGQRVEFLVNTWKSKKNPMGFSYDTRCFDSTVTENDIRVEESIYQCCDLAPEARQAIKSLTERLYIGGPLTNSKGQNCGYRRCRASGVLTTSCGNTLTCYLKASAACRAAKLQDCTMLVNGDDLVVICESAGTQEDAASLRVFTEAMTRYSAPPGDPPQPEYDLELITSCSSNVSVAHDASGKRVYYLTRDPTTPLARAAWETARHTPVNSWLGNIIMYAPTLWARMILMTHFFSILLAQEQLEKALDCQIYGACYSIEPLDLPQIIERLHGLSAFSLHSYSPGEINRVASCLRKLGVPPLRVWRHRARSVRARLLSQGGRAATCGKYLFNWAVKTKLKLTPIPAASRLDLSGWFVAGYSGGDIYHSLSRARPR

Compound | IC50 [µM]
CC1CCC(C2=C(c3cc(-c4ccc(-c5nc6cccnc6n5C)cc4)sc3C(=O)O)CCN(C)C2)CC1 (stereo not shown) [Example 139, 5-[4-(3-Methyl-3H-imidazo[4,5-b]pyridin-2-yl)-phenyl]-3-[1-methyl-5-(4-methyl-cyclohexyl)-1,2,3,6-tetrahydro-pyridin-4-yl]-thiophene-2-carboxylic acid] | > 10
CC1CCC(C2=C(c3cc(-c4ccccc4)sc3C(=O)O)CCN(Cc3ccnc(Br)c3)C2)CC1 (stereo not shown) [Example 144, 3-[1-(2-Bromo-pyridin-4-ylmethyl)-5-(4-methyl-cyclohexyl)-1,2,3,6-tetrahydro-pyridin-4-yl]-5-phenyl-thiophene-2-carboxylic acid] | 3 to 10
CCN1CCC(c2cc(C#CCOC)sc2C(=O)O)=C(C2CCC(C)CC2)C1 (stereo not shown) [Example 034, 3-[1-Ethyl-5-(4-methyl-cyclohexyl)-1,2,3,6-tetrahydro-pyridin-4-yl]-5-(3-methoxy-prop-1-ynyl)-thiophene-2-carboxylic acid] | < 3
CC1CCC(C2=C(c3cc(-c4ccccc4)sc3C(=O)O)CCN(S(C)(=O)=O)C2)CC1 (stereo not shown) [Example 039, 3-[1-Methanesulfonyl-5-(4-methyl-cyclohexyl)-1,2,3,6-tetrahydro-pyridin-4-yl]-5-phenyl-thiophene-2-carboxylic acid] | > 10
CCN1CCC(c2cc(C#CC3CC3)sc2C(=O)O)=C(C2CCC(C)CC2)C1 (stereo not shown) [Example 017, 5-Cyclopropylethynyl-3-[1-ethyl-5-(4-methyl-cyclohexyl)-1,2,3,6-tetrahydro-pyridin-4-yl]-thiophene-2-carboxylic acid] | < 3
CN1CCC(c2cc(-c3ccccc3)sc2C(=O)O)=C(CCC2CCCC2)C1 [Example 063, 3-[5-(2-Cyclopentyl-ethyl)-1-methyl-1,2,3,6-tetrahydro-pyridin-4-yl]-5-phenyl-thiophene-2-carboxylic acid] | > 10
CCOC(=O)OCOC(=O)c1sc(-c2ccc(NC(=O)c3cscn3)cc2)cc1C1=C(C2CCC(C)CC2)CN(C)CC1 (stereo not shown) [Example 107, 3-[1-Methyl-5-(4-methyl-cyclohexyl)-1,2,3,6-tetrahydro-pyridin-4-yl]-5-{4-[(thiazole-4-carbonyl)-amino]-phenyl}-thiophene-2-carboxylic acid ethoxycarbonyloxymethyl ester] | < 3
CC1CC=C(C2=C(c3cc(-c4ccc(-c5cc6ncccn6n5)cc4)sc3C(=O)O)CCN(C)C2)CC1 (stereo not shown) [Example 070, 3-[1-Methyl-5-(4-methyl-cyclohex-1-enyl)-1,2,3,6-tetrahydro-pyridin-4-yl]-5-(4-pyrazolo[1,5-a]pyrimidin-2-yl-phenyl)-thiophene-2-carboxylic acid] | < 3
CCN1CCC(c2cc(C#CC3CCCC3)sc2C(=O)O)=C(C2CCC(C)CC2)C1 (stereo not shown) [Example 031, 5-Cyclopentylethynyl-3-[1-ethyl-5-(4-methyl-cyclohexyl)-1,2,3,6-tetrahydro-pyridin-4-yl]-thiophene-2-carboxylic acid] | 3 to 10
CC1CCC(C2=C(c3cc(-c4ccccc4)sc3C(=O)O)CCN(CCC(=O)O)C2)CC1 (stereo not shown) [Example 083, 3-[1-(2-Carboxy-ethyl)-5-(4-methyl-cyclohexyl)-1,2,3,6-tetrahydro-pyridin-4-yl]-5-phenyl-thiophene-2-carboxylic acid] | 3 to 10
CC1CCC(C2=C(c3cc(-c4ccccc4)sc3C(=O)O)CCN(Cc3ccnc4ccccc34)C2)CC1 (stereo not shown) [Example 148, 3-[5-(4-Methyl-cyclohexyl)-1-quinolin-4-ylmethyl-1,2,3,6-tetrahydro-Pyridin-4-yl]-5-phenyl-thiophene-2-carboxylic acid] | > 10
CC1CCC(C2=C(c3cc(-c4ccccc4)sc3C(=O)O)CCN(C(=O)c3cnccn3)C2)CC1 (stereo not shown) [Example 045, 3-[5-(4-Methyl-cyclohexyl)-1-(pyrazine-2-carbonyl)-1,2,3,6-tetrahydro-pyridin-4-yl]-5-phenyl-thiophene-2-carboxylic acid] | < 3
CC1CCC(C2=C(c3cc(-c4ccccc4)sc3C(=O)O)CCN(CCc3ccccc3)C2)CC1 (stereo not shown) [Example 078, 3-[5-(4-Methyl-cyclohexyl)-1-phenethyl-1,2,3,6-tetrahydro-pyridin-4-yl]-5-phenyl-thiophene-2-carboxylic acid] | > 10
CCN1CCC(c2cc(-c3ccc(NC(=O)c4cn[nH]c4)cc3)sc2C(=O)O)=C(C2CCC(C)CC2)C1 (stereo not shown) [Example 056, 3-[1-Ethyl-5-(4-methyl-cyclohexyl)-1,2,3,6-tetrahydro-pyridin-4-yl]-5-{4-[(1H-pyrazole-4-carbonyl)-amino]-phenyl}-thiophene-2-carboxylic acid] | 3 to 10
Cc1cc(C)n2nc(CN3CCC(c4cc(-c5ccccc5)sc4C(=O)O)=C(C4CCC(C)CC4)C3)nc2n1 (stereo not shown) [Example 088, 3-[1-(5,7-Dimethyl-[1,2,4]triazolo[1,5-a]pyrimidin-2-ylmethyl)-5-(4-methyl-cyclohexyl)-1,2,3,6-tetrahydro-pyridin-4-yl]-5-phenyl-thiophene-2-carboxylic acid] | < 3
CC1CCC(C2=C(c3cc(-c4ccccc4)sc3C(=O)O)CCN(C(N)=O)C2)CC1 (stereo not shown) [Example 084, 3-[1-Carbamoyl-5-(4-methyl-cyclohexyl)-1,2,3,6-tetrahydro-pyridin-4-yl]-5-phenyl-thiophene-2-carboxylic acid] | < 3
CC1CCC(C2=C(c3cc(-c4ccc(-c5cc6nccc(N)n6n5)cc4)sc3C(=O)O)CCN(C)C2)CC1 (stereo not shown) [Example 132, 5-[4-(7-Amino-pyrazolo[1,5-a]pyrimidin-2-yl)-phenyl]-3-[1-methyl-5-(4-methyl-cyclohexyl)-1,2,3,6-tetrahydro-pyridin-4-yl]-thiophene-2-carboxylic acid, hydrochloride salt] | < 3
CC1CCC(C2=C(c3cc(C#CC(C)(C)C)sc3C(=O)O)CCN(Cc3ccncc3)C2)CC1 (stereo not shown) [Example 133, 5-(3,3-Dimethyl-but-1-ynyl)-3-[5-(4-methyl-cyclohexyl)-1-pyridin-4-ylmethyl-1,2,3,6-tetrahydro-pyridin-4-yl]-thiophene-2-carboxylic acid] | 3 to 10
CC1CCC(C2=C(c3cc(-c4ccc(NC(=O)c5cscn5)cc4)sc3C(=O)OCOC(=O)C(C)(C)C)CCN(C)C2)CC1 (stereo not shown) [Example 101, 3-[1-Methyl-5-(4-methyl-cyclohexyl)-1,2,3,6-tetrahydro-pyridin-4-yl]-5-{4-[(thiazole-4-carbonyl)-amino]-phenyl}-thiophene-2-carboxylic acid 2,2-dimethyl-propionyloxymethyl ester] | > 10
CCCC(C)C#Cc1cc(C2=C(C3CCC(C)CC3)CCN(C)C2)c(C(=O)O)s1 (stereo not shown) [Example 177, 5-(3-Methyl-hex-1-ynyl)-3-[1-methyl-4-(4-methyl-cyclohexyl)-1,2,5,6-tetrahydro-pyridin-3-yl]-thiophene-2-carboxylic acid] | 3 to 10
CCN1CCC(c2cc(C#CC3CCCCC3)sc2C(=O)O)=C(C2CCC(C)CC2)C1 (stereo not shown) [Example 016, 5-Cyclohexylethynyl-3-[1-ethyl-5-(4-methyl-cyclohexyl)-1,2,3,6-tetrahydro-pyridin-4-yl]-thiophene-2-carboxylic acid] | > 10
CC1CC=C(C2=C(c3cc(C#CC(C)(C)C)sc3C(=O)O)CCN(C)C2)CC1 (stereo not shown) [Example 068, 5-(3,3-Dimethyl-but-1-ynyl)-3-[1-methyl-5-(4-methyl-cyclohex-1-enyl)-1,2,3,6-tetrahydro-pyridin-4-yl]-thiophene-2-carboxylic acid] | < 3
CC1CCC(C2=C(c3cc(-c4ccc(-c5cc6ncccn6n5)cc4)sc3C(=O)O)CN(C)CC2)CC1 (stereo not shown) [Example 169, 3-[1-Methyl-4-(4-methyl-cyclohexyl)-1,2,5,6-tetrahydro-pyridin-3-yl]-5-(4-pyrazolo[1,5-a]pyrimidin-2-yl-phenyl)-thiophene-2-carboxylic acid] | < 3
CC1CCC(C2=C(c3cc(-c4ccc(C#Cc5cscn5)cc4)sc3C(=O)O)CCN(C)C2)CC1 (stereo not shown) [Example 129, 3-[1-Methyl-5-(4-methyl-cyclohexyl)-1,2,3,6-tetrahydro-pyridin-4-yl]-5-(4-thiazol-4-ylethynyl-phenyl)-thiophene-2-carboxylic acid, hydrochloride salt] | < 3
CCOC(C#Cc1cc(C2=C(C3CCC(C)CC3)CN(CC)CC2)c(C(=O)O)s1)OCC (stereo not shown) [Example 033, 5-(3,3-Diethoxy-prop-1-ynyl)-3-[1-ethyl-5-(4-methyl-cyclohexyl)-1,2,3,6-tetrahydro-pyridin-4-yl]-thiophene-2-carboxylic acid] | 3 to 10
Cc1oc(=O)oc1COC(=O)c1sc(-c2ccc(NC(=O)c3cscn3)cc2)cc1C1=C(C2CCC(C)CC2)CN(C)CC1 (stereo not shown) [Example 108, 3-[1-Methyl-5-(4-methyl-cyclohexyl)-1,2,3,6-tetrahydro-pyridin-4-yl]-5-{4-[(thiazole-4-carbonyl)-amino]-phenyl}-thiophene-2-carboxylic acid 5-methyl-2-oxo-[1,3]-dioxol-4-ylmethyl ester] | < 3
CCN1CCC(c2cc(-c3ccc(NC(=O)C4CCCO4)cc3)sc2C(=O)O)=C(C2CCC(C)CC2)C1 (stereo not shown) [Example 058, 3-[1-Ethyl-5-(4-methyl-cyclohexyl)-1,2,3,6-tetrahydro-pyridin-4-yl]-5-{4-[(tetrahydro-furan-2-carbonyl)-amino]-phenyl}-thiophene-2-carboxylic acid] | < 3
CC1CCC(C2=C(c3cc(-c4ccccc4)sc3C(=O)O)CN(C)CC2)CC1 (stereo not shown) [Example 041, 3-[1-Methyl-4-(4-methyl-cyclohexyl)-1,2,5,6-tetrahydro-pyridin-3-yl]-5-phenyl-thiophene-2-carboxylic acid] | < 3
